In patent US7741286B2, “Long lasting anti-angiogenic peptides” (ConjuChem Biotechnologies Inc., priority 1999, dated 2010):

Assay: Peptide stability assay: stability of K5 in human plasma (HPLC/MS of free intact peptide)
Format: in vitro ADME
Set-up: remaining at 4 h / remaining at 24 h: dose or concentration left out as unconfirmed
Details: for % K5 peptide in plasma: final concentration 160 mM K5
Method: K5 was prepared as a 1 μM solution and dissolved in 25% human serum albumin. The mixture was then incubated at 37° C. in the presence of human plasma to final concentration of […] K5. Aliquots of 100 μl were withdrawn from the plasma at 0, 4 hours and 24 hours. The 100 μl aliquots were mixed with 100 μl of blocking solution (5 vol. 5% ZnSO4/3 vol. Acetonitrile/2 vol. Methanol) in order to precipitate all proteins. The sample was centrifuged for 5 min at 10,000 g and the supernatant containing the peptide was recovered and filtered through a 0.22 μm filter. The presence of free intact K5 peptide was assayed by the HPLC/MS. The HPLC parameters for detection of K5 peptide in serum were as follows.
The HPLC method was as follows: A Vydac C18 250×4.6 mm, 5μ particle size column was utilized. The column temperature was 30° C. with a flow rate of 0.5 ml/min. Mobile Phase A was 0.1% TFA/water. Mobile Phase B was 0.1% TFA/acetonitrite. The injection volume was 10 μl.
The gradient was as follows: […]
The proteins were detected at 214, 254 and 334 nm. For mass spectral analysis, the ionization mode was API-electrospray (positive mode) at an M/Z range of 300 to 2000. The gain was 3.0, fragmentor 120 v, threshold 20, stepsize 0.1. The gas temp was 350° C. and the dying gas volume was 10.0 l/min. The Neb pressure was 24 psi and the Vcap was 3500V. The HPLC method was as follows: A Vydac C18 250×4.6 mm, 5μ particle size column was utilized. The column temperature was 30° C. with a flow rate of 0.5 ml/min. Mobile Phase A was 0.1% TFA/water. Mobile Phase B was 0.1% TFA/acetonitrite. The injection volume was 10 μl.
The proteins were detected at 214, 254 and 334 nm. For mass spectral analysis, the ionization mode was API-electrospray (positive mode) at an M/Z range of 300 to 2000. The gain was 3.0, fragmentor 120 v, threshold 20, stepsize 0.1. The gas temp was 350° C. and the drying gas volume was 10.0 l/min. The Neb pressure was 24 psi and the Vcap was 3500V.

H-PRKLYDK-NH2 [Example K5, Pro-Arg-Lys-Leu-Tyr-Asp-Lys-NH2]
% K5 peptide in plasma (0 hrs, 37° C. in human plasma): 100% | remaining at 4 h (4 hrs, 37° C. in human plasma): 9% | % K5 peptide in plasma (4 hrs, 37° C. in human plasma): 9% | remaining at 24 h (24 hrs, 37° C. in human plasma): 0% | stability of unmodified K5 peptide in serum/plasma (in words) (human plasma, 37° C.): quite unstable
